Results reported in patent US5998521A, “Aqueous fluoropolymer compositions and method of preparing the same” (3M Innovative Properties Company, priority 1996, dated 1999).

Assays:
[1] = Hydrolytic stability of esters in concentrated aqueous ammonium hydroxide; assay type: physicochemical; conditions: 2 days
Source text: The acrylate and methacrylate esters from Examples D1-D11 were fully recoverable with essentially no degradation after being stirred with concentrated aqueous ammonium hydroxide for a period of 2 days.

[2] = Thermogravimetric analysis of neat perfluorocarboxylate salts; assay type: physicochemical; conditions: neat salt, nitrogen, 10° C./min
Source text: Thermal degradation measurements were made on a series of neat perfluorocarboxylate salts, including several α-branched open chain structures (Examples N2-N9), a primarily linear open chain structure (Example N10-Fluorad™ FC-143 Fluorochemical Surfactant, commercially available from 3M Company, St. Paul, Minn.), and a closed chain (i.e., cyclic) structure (Example N11--made by the electrochemical fluorination of benzoic acid and hydrolysis in the presence of KOH, as described in U.S. Pat. No. 2,567,011 (Diesslin et al.)).
The perfluorocarboxylate salts were tested using a Perkin-Elmer TGA 7 thermogravimetric analysis apparatus and a salt sample size of approximately 5 mg, a heating rate of 10° C./min, and a nitrogen gas flow rate of 40-45 mL/min. Using the TGA 7 software, the following temperatures were recorded: (1) the onset temperature of decomposition, (2) the temperature at which 50% of the sample weight was lost, and (3) the temperature at which 90% of the sample weight was lost.

[3] = Degradation in aqueous solution at room temperature over 1 year; assay type: physicochemical
Method: The α-branched open chain ammonium salt compounds from Examples N3-N6 were dissolved in deionized water at a concentration of 5% by weight (0.5 g ammonium salt in 10 mL water) and were stored at room temperature.

[4] = Surface tension and critical micelle concentration of aqueous surfactant solutions; assay type: physicochemical; conditions: Table 5, deionized water; for Surf. Tens.: at the CMC
Method: Critical Micelle Concentration (CMC): The critical micelle concentration is defined as the concentration at which further surface tension is no longer lowered with increasing levels of surfactant. To determine CMC, surface tension is measured as a function of surfactant concentration using a K-12 Processor Tensiometer in conjunction with a 665 Dosimat automatic surfactant injection device (also commercially available from Kruss GmbH). Surface tension is then plotted vs. log concentration and the data points are connected. The resulting curve has a nearly horizontal flat portion at concentrations above the CMC and has a negative steep slope at concentrations below the CMC. The CMC is defined as the lowest surfactant concentration in the horizontal flat portion of the curve.
(§1) Then the critical micelle concentration (CMC) was determined for each surfactant.
as §1

[5] = Emulsion copolymerization of hexafluoropropylene and vinylidene fluoride
Source text: The following procedure was used to evaluate C7 F15 CF(CF3)COO^- NH4^+ (from Ex. M1) as an emulsifier to copolymerize hexafluoropropylene (HFP) and vinylidene fluoride.
A 1 gallon, vertically agitated stainless steel reactor with pressure and temperature controls was evacuated and twice purged with nitrogen. Using an isolated vacuum, a solution comprised of 2 g of ammonium persulfate (initiator) and 6 g of dipotassium phosphate dissolved in 2800 g of deionized water was introduced into the reactor. The remaining vacuum on the reactor was vented with nitrogen, and the solution was degassed twice under agitation using alternate vacuum and nitrogen purges. A sufficient amount of a solution of C7 F15 CF(CF3)COO^- NH4^+ in approximately 20 g of 60-70° C. deionized water was introduced to the reactor under isolated vacuum to give a calculated final concentration of 350 ppm emulsifier in the aqueous solution. The reactor was vented with nitrogen, the solution was agitated very briefly, and the reactor was evacuated of nitrogen and isolated. Then the reactor was vented with hexafluoropropylene monomer to a pressure of approximately 10 psig (1280 torr total pressure), and the temperature of the batch was raised to 72° C. with high agitation. Maintaining the temperature at 72° C., a monomer mixture of 60% (wt) of vinylidene fluoride and 40% (wt) hexafluoropropylene was fed from a tared gas cylinder into the head space of the reactor to maintain a reactor pressure of 130 psig (7480 total pressure). After feeding in about 1 kg of monomer blend (approximately 3.75 hours duration), the introduction of monomer was ceased, the reaction was allowed to cool to room temperature, and any residual unreacted monomer was vented.
The resulting latex polymer was drained from the reactor, and percent solids of the latex was determined to be 25% by weight as measured by drying 10 g of latex in a forced air oven for 16 hours at 105° C.
The reactor body was separated from the reactor head, and a visual inspection of the reactor was made to determine the amount of coagulated polymer in the reactor (the amount should be minimal in a good polymerization reaction). A qualitative rating was assessed, ranging from "none" to "little" to "some."
The latex stability was determined by half filling a 16 oz (450 mL) jar with latex and shaking several hours in the horizontal position, quantitatively rating the latex after shaking using a 3-point scale ranging from 0=very stable to 3=unstable.
Particle size in the latex was determined using 90° scattering on a Coulter sub-micron particle size analyzer.
Degree of foaming was rated using the following qualitative scale: 0=not foamy, 1=slightly foamy, 2=moderately foamy, and 3=very foamy.
In Example P2, the same experiment was run as in Example P1, except that the concentration of C7 F15 CF(CF3)COO^- NH4^+emulsifier was raised to 3500 ppm, the reaction time decreased from 3.75 to 3.5 hours, and the reaction temperature increased from 72° C. to 78° C.
In Comparative Examples P3-P6, the same experiment was run as in Example P1, except that C8 F17 SO2 N(C2 H5)CH2 COO^- K^+ (Fluorad™ FC-128 Fluorochemical Surfactant, available from 3M Company, St. Paul, Minn.), C7 F15 COO^- H4 N^+ (Fluorad™ FC-143 Fluorochemical Surfactant), and Surflon™ S111S Fluorochemical Surfactant (believed to be nominally telomer-based n-C9 F19 COO^- H4 N^+, commercially available from Asahi Glass Corp., Japan) were substituted for C7 F15 CF(CF3)COO^- HN^+ emulsifier.

[6] = Thermal degradation in aqueous media; assay type: physicochemical; conditions: for volatile products formed: aqueous, approximately 80° C. for several hours, or similar way
Method: The thermal degradation of an aqueous α-branched perfluoroalkylcarbonyl fluoride and the characterization of the products produced from the degradation were carried out using the following procedure. […] 5.7 g of volatile degradation products were then collected by azeotropic distillation using a Dean-Stark apparatus.
The thermal degradation of C7 F15 CF(CF3)COF (from Example A4) dispersed in water was also carried out by heating the aqueous mixture for several hours at approximately 80° C.

rats [7] = experiment: Rat desiccator jar chamber test, exhaled degradation products; assay type: in vivo
Method: Additional biological testing of C7 F15 CF(CF3)COO^- NH4^+ in rats was conducted using the following test apparatus. An uptake desiccator jar chamber was designed with top and bottom portions, the top portion equipped with an inlet port, an outlet port, oxygen monitor and pressure gage. An oxygen gas tank supplied oxygen into the inlet port, and the oxygen level in the chamber was maintained at a normal ambient level as measured by the oxygen monitor and pressure gage. The outlet port was connected in series with a carbon dioxide scrubber and particulate filter, which in turn was connected to a loop containing a stainless steel bellows pump operating at about 2 L/min. Most of the gas in the loop was recycled into the inlet port, but about 100 mL/min was directed through a secondary loop to a gas chromatograph equipped with a 0.5 mL gas sampling loop.
A rat dosed at 500 mg/kg was placed in the bottom portion of the chamber, the top portion was attached, and the assembled chamber was placed in an ice-filled pan to allow for the condensation of water. The oxygen flow was started, and the exhaust gases were monitored for the presence of CF3 CF=CF(C6 F13) and C7 F15 CFHCF3, aqueous degradation products of C7 F15 CF(CF3)COOH, using known standards of this olefin and hydride in the gas chromatograph. […] After 24 minutes, one slight chromatographic peak was noted, corresponding to the monohydride. After 92 minutes, the peak became noticeably larger and a second peak formed, corresponding to the olefin.

rats [8] = experiment: Acute LD50, one-time feeding study of rats over 21 days; assay type: in vivo, rat; conditions: for acute toxicity: rat, in vivo
Method: (§2) Acute LD50 measurements for a one-time feeding study of rats were determined over a 21 day period for both the α-branched perfluorocarboxylate salt, C7 F15 CF(CF3)COO^- NH4^+, and its straight chain isomer, CF3 (CF2)8 COO^- NH4^+.

[9] = as above; assay type: in vivo, rat; conditions: rat, in vivo, po; one-time feeding, rats, 21 day period
Method: as §2

rats [10] = conditions: Goeche-Flora et al.; cited from earlier work

C=CC(=O)OCCOC(=O)C(F)(F)C(F)(F)C(F)(F)C(F)(F)C(F)(F)C(F)(F)C(F)(F)F [C7 F15 COOCH2 CH2 OCOCH=CH2]
hydrolytic stability [1]: readily hydrolyzed

O=C(O)C(F)(F)C(F)(F)C(F)(F)C(F)(F)C(F)(F)C(F)(F)C(F)(F)F [FC-143, C7 F15 COO^- H4 N^+]
Temperature for: 50% loss [2]: 188 °C | Temperature for: 90% loss [2]: 202 °C | Temperature for: Onset [2]: 173 °C | degradation after 1 year [3]: no signs of degradation | Surf. Tens. [4]: 21.5 dynes/cm | CMC [4]: 8000 ppm | Latex Stability ([5]; emulsifier 350 ppm): 2

CCN(CC(=O)O)S(=O)(=O)C(F)(F)C(F)(F)C(F)(F)C(F)(F)C(F)(F)C(F)(F)C(F)(F)C(F)(F)F [Fluorad ™ FC-128, C8 F17 SO2 N(C2 H5)CH2 COO^- K^+]
Latex Stability ([5]; emulsifier 100 ppm): 2 | Latex Stability ([5]; emulsifier 350 ppm): 0

O=C(F)C(F)(C(F)(F)F)C(F)(F)C(F)(F)C(F)(F)C(F)(F)C(F)(F)C(F)(F)C(F)(F)F (centres unmarked) [Example A4, C7 F15 CF(CF3)COF]
volatile products formed [6]: The same volatile products were formed as in Example N1 | volatile degradation products collected ([6]; from 8 g, refluxed in deionized water 2 hours): 5.7 g | monohydride in volatile degradation products ([6]; in water): 85% | olefin in volatile degradation products ([6]; in water): 15%

O=C(O)C(F)(C(F)(F)F)C(F)(F)C(F)(F)C(F)(F)C(F)(F)C(F)(F)C(F)(F)C(F)(F)F (centres unmarked) [Example M14, C7 F15 CF(CF3)COO^- H4 N^+]
Temperature for: 50% loss [2]: 163 °C | Temperature for: 90% loss [2]: 174 °C | Temperature for: Onset [2]: 151 °C | olefin and monohydride in exhaust gas (rats [7]; after 217 minutes): both peaks became significantly larger | olefin and monohydride in exhaust gas (rats [7]; initially): no olefin or hydride were detected | metabolism and elimination (rats [7]; rat): being metabolized by the rat to volatile metabolites which were eliminated from the rat via transpiration | post-exposure observation (rats [7]; rat dosed at 500 mg/kg): no evidence of toxicity (death) or evidence of wasting syndrome | time at which monohydride peak noted in exhaust gas (rats [7]; rat dosed at 500 mg/kg): 24 min | time at which olefin peak formed in exhaust gas (rats [7]; rat dosed at 500 mg/kg, monohydride peak noticeably larger): 92 min | Surf. Tens. [4]: 16.5 dynes/cm | CMC [4]: 2500 ppm | acute toxicity (rats [8]; listed as C7 F15 CF(CF3)COO^- NH4): relatively low toxicity | acute toxicity (rats [8]; listed as C7 F15 CF(CF3)COO^- NH4+): only slightly toxic | time of deaths from toxic doses (rats [8]; rats): 2 to 3 days | time until rats began regaining weight (rats [8]; rats): 3 days | wasting syndrome (rats [8]; rats): No wasting syndrome was noted | LD50 at 504 h [9]: 500 to 1000 mg/kg | Latex Stability ([5]; emulsifier 350 ppm): 2 | Latex Stability ([5]; emulsifier 3500 ppm): 0

O=C(O)C(F)(F)C(F)(F)C(F)(F)C(F)(F)C(F)(F)C(F)(F)C(F)(F)C(F)(F)C(F)(F)F [C9 F19 COO^- NH4^+, CF3 (CF2)8 COO^- NH4^+, reference compound]
acute toxicity (rats [8]): moderately toxic | wasting syndrome (rats [8]; rats): Wasting syndrome was observed | toxicity relative to the α-branched isomer (rats [8]; rats, LD50): ca. 10 times | LD50 at 504 h [9]: 50 to 100 mg/kg | toxicity (literature, words) (rats [10]): moderately toxic

O=C(O)C(F)(C(F)(F)F)C(F)(F)C(F)(F)C(F)(F)C(F)(F)C(F)(F)C(F)(F)C(F)(F)F (centres unmarked) [Example M1, C7 F15 CF(CF3)COOH]
volatile products formed [6]: the same monohydride and olefin

O=C(O)C(F)(C(F)(F)F)C(F)(F)C(F)(F)C(F)(F)C(F)(F)C(F)(F)F (centres unmarked) [Example M21, C5 F11 CF(CF3)COO^- K^+]
Temperature for: 50% loss ([2]; listed as N9): 178 °C | Temperature for: 90% loss ([2]; listed as N9): 188 °C | Temperature for: Onset ([2]; listed as N9): 167 °C | Surf. Tens. [4]: 22.5 dynes/cm | CMC [4]: > 10000 ppm
